# Experimental data published in patent US20260191835A1, “COMBINATIONS COMPRISING A MENIN-MLL INHIBITOR AND AT LEAST ONE OTHER THERAPEUTIC AGENT” (JANSSEN PHARMACEUTICA NV, priority 2022, published 2026).
# System: MV4-11 cells
# Experiment: In vitro proliferation (Cell Titer Glo, 6 days) of Compound 51 in combination with gilteritinib, midostaurin or decitabine, MV4-11
# Format: cell-based
# Design: key to Synergy/antagonism call (maxR test), MV4-11 Cell Proliferation: synergy is indicated by “**”; antagonism is indicated by “*”; no asterisk: absence of any asterisk indicates an additive effect
# Conditions: for combination effect on proliferation (cytotoxicity): 6-day CellTiter-Glo matrix
# Description: 3) In Vitro Proliferation—Menin-MLL Inhibitor in Combination with FLT3 Inhibitor (Gilteritinib or Midostaurin), DNA Intercalating Agent (Idarubicin) or Hypomethylating Agent (Decitabine)
# The effect of Compound 51 in combination with gilteritinib, midostaurin, idarubicin or decitabine was determined in proliferation assays.
# AML cell lines MOLM-13, OCI-AML3 and MV4-11 were purchased from DSMZ. MOLM-13 were grown in RPMI medium supplemented with 10% Fetal Bovine Serum (FBS) and 1% penicillin/streptomycin. MV4-11 cells were grown in IMDM medium supplemented with 10% FBS and 1% penicillin/streptomycin. OCI-AML3 cells were cultured in 80-90% alpha-MEM (with or without ribo- and deoxyribonucleosides)+10-20% FBS. All cell lines were cultured at 37° C. in 5% CO2 atmosphere.
# AML cell lines (10-20×10^3 cells/well) were seeded in 96-well plates and grown for 6 days in serum (10%)-containing medium in the presence or absence of inhibitors at the indicated concentrations. Proliferation was analyzed by means of a Cell Titer Glo assay using the […] (Promega, Madison, WI, USA), according to the manufacturer's instructions. Data are mean with standard deviation from two to four independent experiments in technical triplicates.
# R-based Biochemically Intuitive Generalized Loewe (BIGL) model implemented with a highest single agent (HSA) null model. Specifically, the BIGL methodology was applied to calculate drug-drug interactions (Van der Borght, K., Tourny, A., Bagdziunas, R. et al. BIGL: Biochemically Intuitive Generalized Loewe null model for prediction of the expected combined effect compatible with partial agonism and antagonism. Sci Rep 7, 17935 (2017); Thas, O., Tourny, A., Verbist, B., Hawinkel, S., Nazarov, M., Mutambanengwe, K., & Bijnens, L. Statistical detection of synergy: New methods and a comparative study. Pharmaceutical Statistics (2021)).
# Synergy matrix results of the BIGL analysis of the cell line data with HSA as mean model calculated on the basis of the cellular metabolic activity using Cell Titer-Glo assay. Bootstrap confidence intervals are indicated. Effect sizes and their confidence intervals are shown. […] No significant average effect if zero is included in the interval.
# [1] = Compound 51 0.1 μm + Decitabine 0.15 μM
# [2] = Compound 51 0.1 μm + Decitabine 1.5 μM
smiles,measurement,setting,value
CC(=O)N1CCC(CN2CC[C@@H](Cc3cn(-c4ccc(F)cc4C(=O)N(C)C(C)C)c4cncc(C)c34)C2)CC1 [Compound 51],"Effect size (BIGL, HSA null model), MV4-11 Cell Proliferation",Compound 51 0.05 μm + Gilteritinib 0.3 μM,−0.02
same,"Effect size (BIGL, HSA null model), MV4-11 Cell Proliferation",Compound 51 0.05 μm + Gilteritinib 1 μM,−0.02
same,"Effect size (BIGL, HSA null model), MV4-11 Cell Proliferation",Compound 51 0.05 μm + Midostaurin 0.0012 μM,−0.02
same,"Effect size (BIGL, HSA null model), MV4-11 Cell Proliferation",Compound 51 0.05 μm + Midostaurin 0.006 μM,−0.07
same,"Effect size (BIGL, HSA null model), MV4-11 Cell Proliferation",Compound 51 0.05 μm + Midostaurin 0.025 μM,−0.14
same,"Effect size (BIGL, HSA null model), MV4-11 Cell Proliferation",Compound 51 0.05 μm + Midostaurin 0.05 μM,−0.13
same,"Effect size (BIGL, HSA null model), MV4-11 Cell Proliferation",Compound 51 0.05 μm + Midostaurin 0.1 μM,−0.04
same,"Effect size (BIGL, HSA null model), MV4-11 Cell Proliferation",Compound 51 0.05 μm + Midostaurin 0.5 μM,0.03
same,"Effect size (BIGL, HSA null model), MV4-11 Cell Proliferation",Compound 51 0.1 μm + Decitabine 0.0015 μM,0.01
same,"Effect size (BIGL, HSA null model), MV4-11 Cell Proliferation",Compound 51 0.1 μm + Decitabine 0.035 μM,−0.04
same,"Effect size (BIGL, HSA null model), MV4-11 Cell Proliferation",[1],−0.09
same,"Synergy/antagonism call (maxR test), MV4-11 Cell Proliferation",[1],**
same,"Effect size (BIGL, HSA null model), MV4-11 Cell Proliferation",[2],−0.11
same,"Synergy/antagonism call (maxR test), MV4-11 Cell Proliferation",[2],**
same,"Effect size (BIGL, HSA null model), MV4-11 Cell Proliferation",Compound 51 0.1 μm + Decitabine 3 μM,−0.06
same,"Effect size (BIGL, HSA null model), MV4-11 Cell Proliferation",Compound 51 0.1 μm + Gilteritinib 0.0005 μM,−0.07
same,"Effect size (BIGL, HSA null model), MV4-11 Cell Proliferation",Compound 51 0.1 μm + Gilteritinib 0.005 μM,−0.03
same,"Effect size (BIGL, HSA null model), MV4-11 Cell Proliferation",Compound 51 0.1 μm + Gilteritinib 0.01 μM,−0.02
same,"Effect size (BIGL, HSA null model), MV4-11 Cell Proliferation",Compound 51 0.1 μm + Gilteritinib 0.05 μM,−0.02
same,"Effect size (BIGL, HSA null model), MV4-11 Cell Proliferation",Compound 51 0.1 μm + Gilteritinib 0.3 μM,−0.02
same,"Effect size (BIGL, HSA null model), MV4-11 Cell Proliferation",Compound 51 0.1 μm + Gilteritinib 1 μM,−0.02
same,"Effect size (BIGL, HSA null model), MV4-11 Cell Proliferation",Compound 51 0.1 μm + Midostaurin 0.0012 μM,−0.03
same,"Effect size (BIGL, HSA null model), MV4-11 Cell Proliferation",Compound 51 0.1 μm + Midostaurin 0.006 μM,−0.06
same,"Effect size (BIGL, HSA null model), MV4-11 Cell Proliferation",Compound 51 0.1 μm + Midostaurin 0.025 μM,−0.08
same,"Effect size (BIGL, HSA null model), MV4-11 Cell Proliferation",Compound 51 0.1 μm + Midostaurin 0.05 μM,−0.09
same,"Effect size (BIGL, HSA null model), MV4-11 Cell Proliferation",Compound 51 0.1 μm + Midostaurin 0.1 μM,−0.04
same,"Effect size (BIGL, HSA null model), MV4-11 Cell Proliferation",Compound 51 0.1 μm + Midostaurin 0.5 μM,0.03
same,"Effect size (BIGL, HSA null model), MV4-11 Cell Proliferation",Compound 51 0.5 μm + Decitabine 0.0015 μM,0
same,"Effect size (BIGL, HSA null model), MV4-11 Cell Proliferation",Compound 51 0.5 μm + Decitabine 0.035 μM,−0.01
same,"Effect size (BIGL, HSA null model), MV4-11 Cell Proliferation",Compound 51 0.5 μm + Decitabine 0.15 μM,−0.02
same,"Effect size (BIGL, HSA null model), MV4-11 Cell Proliferation",Compound 51 0.5 μm + Gilteritinib 0.0005 μM,−0.02
same,"Effect size (BIGL, HSA null model), MV4-11 Cell Proliferation",Compound 51 0.5 μm + Gilteritinib 0.005 μM,−0.03
same,"Effect size (BIGL, HSA null model), MV4-11 Cell Proliferation",Compound 51 0.5 μm + Gilteritinib 0.01 μM,−0.02
same,"Effect size (BIGL, HSA null model), MV4-11 Cell Proliferation",Compound 51 0.5 μm + Gilteritinib 0.05 μM,−0.02
same,"Effect size (BIGL, HSA null model), MV4-11 Cell Proliferation",Compound 51 0.5 μm + Gilteritinib 0.3 μM,−0.02
same,"Effect size (BIGL, HSA null model), MV4-11 Cell Proliferation",Compound 51 0.5 μm + Gilteritinib 1 μM,−0.02
same,"Effect size (BIGL, HSA null model), MV4-11 Cell Proliferation",Compound 51 1 μm + Decitabine 0.0015 μM,0
same,"Effect size (BIGL, HSA null model), MV4-11 Cell Proliferation",Compound 51 1 μm + Decitabine 0.035 μM,−0.01
same,"Effect size (BIGL, HSA null model), MV4-11 Cell Proliferation",Compound 51 1 μm + Decitabine 0.15 μM,−0.02
same,"Effect size (BIGL, HSA null model), MV4-11 Cell Proliferation",Compound 51 1 μm + Decitabine 1.5 μM,−0.03
same,"Effect size (BIGL, HSA null model), MV4-11 Cell Proliferation",Compound 51 1 μm + Decitabine 3 μM,−0.03
same,"Effect size (BIGL, HSA null model), MV4-11 Cell Proliferation",Compound 51 1 μm + Gilteritinib 0.0005 μM,−0.02
same,"Effect size (BIGL, HSA null model), MV4-11 Cell Proliferation",Compound 51 1 μm + Gilteritinib 0.005 μM,−0.02
same,"Effect size (BIGL, HSA null model), MV4-11 Cell Proliferation",Compound 51 1 μm + Gilteritinib 0.01 μM,−0.02
same,"Effect size (BIGL, HSA null model), MV4-11 Cell Proliferation",Compound 51 1 μm + Gilteritinib 0.05 μM,−0.02
same,"Effect size (BIGL, HSA null model), MV4-11 Cell Proliferation",Compound 51 1 μm + Gilteritinib 0.3 μM,−0.02
same,"Effect size (BIGL, HSA null model), MV4-11 Cell Proliferation",Compound 51 1 μm + Gilteritinib 1 μM,−0.02
same,"Effect size (BIGL, HSA null model), MV4-11 Cell Proliferation",Compound 51 1 μm + Midostaurin 0.0012 μM,0.02
same,"Effect size (BIGL, HSA null model), MV4-11 Cell Proliferation",Compound 51 1 μm + Midostaurin 0.006 μM,0.01
same,"Effect size (BIGL, HSA null model), MV4-11 Cell Proliferation",Compound 51 1 μm + Midostaurin 0.025 μM,0
same,"Effect size (BIGL, HSA null model), MV4-11 Cell Proliferation",Compound 51 1 μm + Midostaurin 0.05 μM,0
same,"Effect size (BIGL, HSA null model), MV4-11 Cell Proliferation",Compound 51 1 μm + Midostaurin 0.1 μM,0
same,"Effect size (BIGL, HSA null model), MV4-11 Cell Proliferation",Compound 51 1 μm + Midostaurin 0.5 μM,0.03
same,combination effect on proliferation (cytotoxicity),"in combination with decitabine, MV4-11",synergistically cytotoxic
same,combination effect on proliferation at low doses of gilteritinib,"in combination with gilteritinib 10 nM, MV4-11",synergistic effect
same,combination effect on proliferation (cytotoxicity),"in combination with gilteritinib, MV4-11",not antagonistically cytotoxic
same,combination effect on proliferation (cytotoxicity),"in combination with midostaurin, MV4-11",not antagonistically cytotoxic
